The source made the active and inactive calls. No cut-off for these calls is given here.
Experiments:
[1] = Retention time of the compound under 365 nm UV light irradiation by HPLC analysis; format: physicochemical
[2] = target: T1, Phosphatidylinositol 3-kinase (Mus musculus) (UniProt P26450+P42337); assay: Inhibition of PI3K in mouse B16 cells assessed as reduction in phosphorylation of AKT at […] residue at 10 to 15 uM incubated for 24 hrs by Western blot analysis; format: cell-based; details: dose 10-15 µM
[3] = target: T1, Phosphatidylinositol 3-kinase (Mus musculus); assay: Inhibition of PI3K in mouse B16 cells assessed as reduction in phosphorylation of AKT at T308 residue at 10 to 15 uM incubated for 24 hrs by Western blot analysis; format: cell-based; details: dose 10-15 µM
[4] = target: T1, Phosphatidylinositol 3-kinase (Mus musculus); assay: Inhibition of PI3K in mouse B16 cells assessed as reduction in MCL-1 protein expression at 10 to 15 uM incubated for 24 hrs by Western blot analysis; format: cell-based; details: dose 10-15 µM
[5] = target: T1, Phosphatidylinositol 3-kinase (Mus musculus); assay: Inhibition of PI3K in mouse B16 cells assessed as reduction in phosphorylation of AKT at T308 residue at 10 to 15 uM incubated for 24 hrs irradiated with 365 nm uv light for 4 min by Western blot analysis; format: cell-based; details: dose 10-15 µM
[6] = target: T1, Phosphatidylinositol 3-kinase (Mus musculus); assay: Inhibition of PI3K in mouse B16 cells assessed as reduction in phosphorylation of AKT at […] residue at 10 to 15 uM incubated for 24 hrs irradiated with 365 nm uv light for 4 min by Western blot analysis; format: cell-based; details: dose 10-15 µM
[7] = target: Phosphatidylinositol 4,5-bisphosphate 3-kinase catalytic subunit alpha isoform (Homo sapiens, UniProt P42336); assay: Inhibition of PI3Kalpha (unknown origin)
[8] = target: Phosphatidylinositol 4,5-bisphosphate 3-kinase catalytic subunit beta isoform (Homo sapiens, UniProt P42338); assay: Inhibition of PI3Kbeta (unknown origin)
[9] = target: Phosphatidylinositol 4,5-bisphosphate 3-kinase catalytic subunit gamma isoform (Homo sapiens, UniProt P48736); assay: Inhibition of PI3Kgamma (unknown origin)
[10] = target: T2, Phosphatidylinositol 4,5-bisphosphate 3-kinase catalytic subunit delta isoform (Homo sapiens, UniProt O00329); assay: Inhibition of PI3Kdelta (unknown origin)
T2 sequence (O00329 whole entry): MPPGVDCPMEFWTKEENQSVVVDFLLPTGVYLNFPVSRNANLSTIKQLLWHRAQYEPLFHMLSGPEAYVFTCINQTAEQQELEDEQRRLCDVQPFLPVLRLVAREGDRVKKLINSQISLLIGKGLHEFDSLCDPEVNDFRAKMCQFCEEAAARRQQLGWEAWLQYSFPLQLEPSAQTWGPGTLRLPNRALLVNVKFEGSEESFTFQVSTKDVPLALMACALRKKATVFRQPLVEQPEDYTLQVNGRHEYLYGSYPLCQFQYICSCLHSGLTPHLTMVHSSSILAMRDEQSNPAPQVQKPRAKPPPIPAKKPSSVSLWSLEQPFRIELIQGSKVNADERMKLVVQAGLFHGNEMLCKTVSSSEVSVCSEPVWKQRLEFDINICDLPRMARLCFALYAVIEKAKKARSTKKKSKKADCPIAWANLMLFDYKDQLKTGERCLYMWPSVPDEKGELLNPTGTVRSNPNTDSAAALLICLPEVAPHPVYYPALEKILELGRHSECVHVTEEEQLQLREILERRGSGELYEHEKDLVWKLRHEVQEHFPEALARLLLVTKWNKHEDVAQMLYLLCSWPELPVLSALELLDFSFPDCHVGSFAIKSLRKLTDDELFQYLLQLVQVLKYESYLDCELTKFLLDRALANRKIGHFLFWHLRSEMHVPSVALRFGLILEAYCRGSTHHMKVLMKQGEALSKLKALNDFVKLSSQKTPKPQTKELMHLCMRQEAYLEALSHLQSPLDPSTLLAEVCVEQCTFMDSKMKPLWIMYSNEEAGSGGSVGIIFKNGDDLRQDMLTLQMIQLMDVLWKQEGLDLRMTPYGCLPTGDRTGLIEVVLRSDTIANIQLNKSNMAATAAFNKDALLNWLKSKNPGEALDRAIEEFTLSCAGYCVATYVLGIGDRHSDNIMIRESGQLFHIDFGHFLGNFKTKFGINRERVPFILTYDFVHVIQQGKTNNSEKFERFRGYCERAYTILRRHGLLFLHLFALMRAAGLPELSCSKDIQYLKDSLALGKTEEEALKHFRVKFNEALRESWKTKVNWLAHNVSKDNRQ

B16 [11] = assay: Antiproliferative activity against mouse B16 cells assessed as reduction in cell viability incubated for 48 hrs irradiated with 365 nm uv light for 4 min by CCK-8 assay; format: functional, cell-based; details: B16, light or radiation study
[12] = target: T1, Phosphatidylinositol 3-kinase (Mus musculus); assay: Inhibition of PI3K in mouse B16 cells assessed as reduction in phosphorylation of AKT at […] residue incubated for 24 hrs by Western blot analysis; format: cell-based; details: dose 10-15 µM
[13] = target: T1, Phosphatidylinositol 3-kinase (Mus musculus); assay: Inhibition of PI3K in mouse B16 cells assessed as reduction in phosphorylation of AKT at T308 residue incubated for 24 hrs by Western blot analysis; format: cell-based; details: dose 10-15 µM
[14] = target: T1, Phosphatidylinositol 3-kinase (Mus musculus); assay: Inhibition of PI3K in mouse B16 cells assessed as reduction in MCL-1 protein expression incubated for 24 hrs by Western blot analysis; format: cell-based; details: dose 10-15 µM
[15] = target: T1, Phosphatidylinositol 3-kinase (Mus musculus); assay: Inhibition of PI3K in mouse B16 cells assessed as reduction in MCL-1 protein expression at 10 to 15 uM incubated for 24 hrs irradiated with 365 nm uv light for 4 min by Western blot analysis; format: cell-based; details: dose 10-15 µM
B16 [16] = assay: Induction of apoptosis in mouse B16 cells assessed as viable at 10 uM incubated for 48 hrs by annexin-V/propidium iodide staining based flow cytometry analysis (reference value: 97.4 %); format: functional
B16 [17] = assay: Induction of apoptosis in mouse B16 cells assessed as early apoptotic cells at 10 uM incubated for 48 hrs by annexin-V/propidium iodide staining based flow cytometry analysis (reference value: 1.39 %); format: functional
B16 [18] = assay: Induction of apoptosis is in mouse B16 cells assessed as late apoptotic cells at 10 uM incubated for 48 hrs by annexin-V/propidium iodide staining based flow cytometry analysis (reference value: 1.15 %); format: functional
B16 [19] = assay: Induction of apoptosis is in mouse B16 cells assessed as necrotic cells at 10 uM incubated for 48 hrs by annexin-V/propidium iodide staining based flow cytometry analysis (reference value: 0.01 %); format: functional
B16 [20] = assay: Induction of apoptosis in mouse B16 cells assessed as viable at 15 uM incubated for 48 hrs by annexin-V/propidium iodide staining based flow cytometry analysis (reference value: 97.4 %); format: functional
B16 [21] = assay: Induction of apoptosis in mouse B16 cells assessed as early apoptotic cells at 15 uM incubated for 48 hrs by annexin-V/propidium iodide staining based flow cytometry analysis (reference value: 1.39 %); format: functional
B16 [22] = assay: Induction of apoptosis is in mouse B16 cells assessed as late apoptotic cells at 15 uM incubated for 48 hrs by annexin-V/propidium iodide staining based flow cytometry analysis (reference value: 1.15 %); format: functional
B16 [23] = assay: Induction of apoptosis is in mouse B16 cells assessed as necrotic cells at 15 uM incubated for 48 hrs by annexin-V/propidium iodide staining based flow cytometry analysis (reference value: 0.01 %); format: functional
B16 [24] = assay: Induction of apoptosis in mouse B16 cells assessed as viable cells at 10 uM incubated for 48 hrs irradiated with 365 nm for 4 mins by annexin-V/propidium iodide staining based flow cytometry analysis (reference value: 96.7 %); format: functional; details: B16, light or radiation study, read-out: Activity
B16 [25] = assay: Induction of apoptosis in mouse B16 cells assessed as early apoptotic cells at 10 uM incubated for 48 hrs irradiated with 365 nm for 4 mins by annexin-V/propidium iodide staining based flow cytometry analysis (reference value: 2.38 %); format: functional
B16 [26] = assay: Induction of apoptosis in mouse B16 cells assessed as late apoptotic cells at 10 uM incubated for 48 hrs irradiated with 365 nm for 4 mins by annexin-V/propidium iodide staining based flow cytometry analysis (reference value: 0.84 %); format: functional
B16 [27] = assay: Induction of apoptosis in mouse B16 cells assessed as necrotic cells at 10 uM incubated for 48 hrs irradiated with 365 nm for 4 mins by annexin-V/propidium iodide staining based flow cytometry analysis (reference value: 0.07 %); format: functional
B16 [28] = assay: Induction of apoptosis in mouse B16 cells assessed as viable cells at 15 uM incubated for 48 hrs irradiated with 365 nm for 4 mins by annexin-V/propidium iodide staining based flow cytometry analysis (reference value: 96.7 %); format: functional; details: B16, light or radiation study, read-out: Activity
B16 [29] = assay: Induction of apoptosis in mouse B16 cells assessed as early apoptotic cells at 15 uM incubated for 48 hrs irradiated with 365 nm for 4 mins by annexin-V/propidium iodide staining based flow cytometry analysis (reference value: 2.38 %); format: functional
B16 [30] = assay: Induction of apoptosis in mouse B16 cells assessed as late apoptotic cells at 15 uM incubated for 48 hrs irradiated with 365 nm for 4 mins by annexin-V/propidium iodide staining based flow cytometry analysis (reference value: 0.84 %); format: functional
B16 [31] = assay: Induction of apoptosis in mouse B16 cells assessed as necrotic cells at 15 uM incubated for 48 hrs irradiated with 365 nm for 4 mins by annexin-V/propidium iodide staining based flow cytometry analysis (reference value: 0.07 %); format: functional
B16 [32] = assay: Induction of cell cycle arrest in mouse B16 cells assessed as cells accumulation at G2/M phase at 10 to 15 uM incubated for 24 hrs by flow cytometry analysis; format: functional, cell-based; details: dose 10-15 µM
B16 [33] = assay: Induction of cell cycle arrest in mouse B16 cells assessed as cells accumulation at G2/M phase at 10 to 15 uM incubated for 24 hrs irradiated with 365 nm for 4 mins by flow cytometry analysis; format: functional, cell-based; details: dose 10-15 µM
B16 [34] = assay: Induction of apoptosis in mouse B16 cells assessed as increase in apoptotic cells at 10 uM incubated for 48 hrs by annexin-V/propidium iodide staining based flow cytometry analysis; format: functional
[35] = Photorelease activity in PBS assessed as N-(2-chloro-5-(1H-pyrazolo[3,4-b]pyridin-5-yl)pyridin-3-yl) benzene sulfonamide release irradiated with 254 nm incubated for 12 mins by HPLC analysis

T1 sequence (P26450 whole entry, looked up): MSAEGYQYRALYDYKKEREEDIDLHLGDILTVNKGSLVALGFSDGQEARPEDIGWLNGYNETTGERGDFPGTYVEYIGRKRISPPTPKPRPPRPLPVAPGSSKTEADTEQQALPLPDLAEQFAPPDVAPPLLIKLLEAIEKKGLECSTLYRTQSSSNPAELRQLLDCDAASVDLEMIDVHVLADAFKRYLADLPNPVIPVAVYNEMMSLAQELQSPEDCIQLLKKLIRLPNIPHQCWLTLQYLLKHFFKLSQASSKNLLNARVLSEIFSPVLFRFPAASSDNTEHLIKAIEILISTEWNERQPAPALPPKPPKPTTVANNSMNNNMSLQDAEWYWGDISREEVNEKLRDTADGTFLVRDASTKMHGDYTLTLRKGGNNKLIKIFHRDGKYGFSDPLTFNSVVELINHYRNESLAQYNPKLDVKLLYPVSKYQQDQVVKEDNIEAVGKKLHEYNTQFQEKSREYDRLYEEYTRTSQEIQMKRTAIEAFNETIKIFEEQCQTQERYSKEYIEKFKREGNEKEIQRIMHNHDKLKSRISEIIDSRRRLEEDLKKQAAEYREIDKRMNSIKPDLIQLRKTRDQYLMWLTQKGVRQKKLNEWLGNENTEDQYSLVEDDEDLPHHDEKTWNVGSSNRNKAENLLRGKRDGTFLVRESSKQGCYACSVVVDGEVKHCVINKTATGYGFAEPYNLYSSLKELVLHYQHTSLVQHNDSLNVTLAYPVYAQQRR
T1 sequence (P42337 whole entry, looked up): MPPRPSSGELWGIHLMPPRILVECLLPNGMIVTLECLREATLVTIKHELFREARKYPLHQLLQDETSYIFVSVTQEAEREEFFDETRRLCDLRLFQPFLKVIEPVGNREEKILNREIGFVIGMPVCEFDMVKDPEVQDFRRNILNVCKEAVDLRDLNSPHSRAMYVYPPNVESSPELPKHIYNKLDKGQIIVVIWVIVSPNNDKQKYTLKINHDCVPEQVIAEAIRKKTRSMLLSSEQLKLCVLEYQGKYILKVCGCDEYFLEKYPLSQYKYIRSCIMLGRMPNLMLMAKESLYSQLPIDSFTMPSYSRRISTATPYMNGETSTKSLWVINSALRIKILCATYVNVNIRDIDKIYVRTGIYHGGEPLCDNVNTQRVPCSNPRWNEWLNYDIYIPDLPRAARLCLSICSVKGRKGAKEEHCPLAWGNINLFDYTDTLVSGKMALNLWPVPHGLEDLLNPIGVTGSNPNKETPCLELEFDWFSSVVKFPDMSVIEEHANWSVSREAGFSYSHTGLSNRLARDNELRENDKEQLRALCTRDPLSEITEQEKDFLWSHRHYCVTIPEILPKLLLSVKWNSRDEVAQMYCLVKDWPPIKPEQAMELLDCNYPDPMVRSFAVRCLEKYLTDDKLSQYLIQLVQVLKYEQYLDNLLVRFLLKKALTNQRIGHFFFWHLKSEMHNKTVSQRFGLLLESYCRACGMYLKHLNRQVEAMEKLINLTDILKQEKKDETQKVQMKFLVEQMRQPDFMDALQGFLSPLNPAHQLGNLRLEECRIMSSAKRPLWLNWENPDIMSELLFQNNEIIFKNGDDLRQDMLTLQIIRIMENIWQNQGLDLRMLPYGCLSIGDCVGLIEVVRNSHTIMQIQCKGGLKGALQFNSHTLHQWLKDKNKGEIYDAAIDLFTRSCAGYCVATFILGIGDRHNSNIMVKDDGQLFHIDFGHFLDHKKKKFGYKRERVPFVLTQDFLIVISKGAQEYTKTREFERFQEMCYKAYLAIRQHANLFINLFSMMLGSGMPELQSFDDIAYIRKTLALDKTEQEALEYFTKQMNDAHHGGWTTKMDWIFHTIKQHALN
Chain of Phosphatidylinositol 4,5-bisphosphate 3-kinase catalytic subunit beta isoform (P42338 whole entry, canonical isoform): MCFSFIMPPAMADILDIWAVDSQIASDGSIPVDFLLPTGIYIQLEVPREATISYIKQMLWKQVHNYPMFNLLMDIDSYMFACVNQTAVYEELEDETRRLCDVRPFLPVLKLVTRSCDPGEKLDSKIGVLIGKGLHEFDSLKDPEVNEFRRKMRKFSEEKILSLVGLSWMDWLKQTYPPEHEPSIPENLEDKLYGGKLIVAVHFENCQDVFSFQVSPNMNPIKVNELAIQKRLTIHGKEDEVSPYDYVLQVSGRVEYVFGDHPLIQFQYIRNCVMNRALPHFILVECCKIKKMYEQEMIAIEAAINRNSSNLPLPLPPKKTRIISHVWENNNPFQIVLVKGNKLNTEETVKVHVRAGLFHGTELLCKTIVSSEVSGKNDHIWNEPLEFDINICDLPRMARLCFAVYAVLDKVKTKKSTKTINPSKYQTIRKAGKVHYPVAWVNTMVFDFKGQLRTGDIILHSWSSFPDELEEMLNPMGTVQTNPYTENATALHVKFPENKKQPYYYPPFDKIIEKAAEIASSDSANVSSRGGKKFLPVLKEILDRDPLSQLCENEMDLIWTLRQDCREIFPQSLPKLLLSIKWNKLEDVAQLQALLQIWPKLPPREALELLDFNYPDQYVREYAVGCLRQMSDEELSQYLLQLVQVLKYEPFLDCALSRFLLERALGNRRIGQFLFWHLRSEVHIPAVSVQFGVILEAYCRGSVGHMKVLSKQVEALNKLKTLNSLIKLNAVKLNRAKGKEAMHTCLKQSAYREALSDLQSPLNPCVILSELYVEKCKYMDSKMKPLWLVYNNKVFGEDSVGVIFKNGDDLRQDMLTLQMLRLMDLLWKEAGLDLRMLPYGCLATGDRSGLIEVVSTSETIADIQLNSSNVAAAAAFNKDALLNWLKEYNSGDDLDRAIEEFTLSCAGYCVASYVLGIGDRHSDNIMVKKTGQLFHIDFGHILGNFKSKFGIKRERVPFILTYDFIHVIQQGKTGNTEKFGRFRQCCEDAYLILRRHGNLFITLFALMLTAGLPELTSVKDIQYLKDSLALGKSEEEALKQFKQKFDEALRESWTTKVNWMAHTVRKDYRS
Chain of Phosphatidylinositol 4,5-bisphosphate 3-kinase catalytic subunit gamma isoform (P48736 whole entry, canonical isoform): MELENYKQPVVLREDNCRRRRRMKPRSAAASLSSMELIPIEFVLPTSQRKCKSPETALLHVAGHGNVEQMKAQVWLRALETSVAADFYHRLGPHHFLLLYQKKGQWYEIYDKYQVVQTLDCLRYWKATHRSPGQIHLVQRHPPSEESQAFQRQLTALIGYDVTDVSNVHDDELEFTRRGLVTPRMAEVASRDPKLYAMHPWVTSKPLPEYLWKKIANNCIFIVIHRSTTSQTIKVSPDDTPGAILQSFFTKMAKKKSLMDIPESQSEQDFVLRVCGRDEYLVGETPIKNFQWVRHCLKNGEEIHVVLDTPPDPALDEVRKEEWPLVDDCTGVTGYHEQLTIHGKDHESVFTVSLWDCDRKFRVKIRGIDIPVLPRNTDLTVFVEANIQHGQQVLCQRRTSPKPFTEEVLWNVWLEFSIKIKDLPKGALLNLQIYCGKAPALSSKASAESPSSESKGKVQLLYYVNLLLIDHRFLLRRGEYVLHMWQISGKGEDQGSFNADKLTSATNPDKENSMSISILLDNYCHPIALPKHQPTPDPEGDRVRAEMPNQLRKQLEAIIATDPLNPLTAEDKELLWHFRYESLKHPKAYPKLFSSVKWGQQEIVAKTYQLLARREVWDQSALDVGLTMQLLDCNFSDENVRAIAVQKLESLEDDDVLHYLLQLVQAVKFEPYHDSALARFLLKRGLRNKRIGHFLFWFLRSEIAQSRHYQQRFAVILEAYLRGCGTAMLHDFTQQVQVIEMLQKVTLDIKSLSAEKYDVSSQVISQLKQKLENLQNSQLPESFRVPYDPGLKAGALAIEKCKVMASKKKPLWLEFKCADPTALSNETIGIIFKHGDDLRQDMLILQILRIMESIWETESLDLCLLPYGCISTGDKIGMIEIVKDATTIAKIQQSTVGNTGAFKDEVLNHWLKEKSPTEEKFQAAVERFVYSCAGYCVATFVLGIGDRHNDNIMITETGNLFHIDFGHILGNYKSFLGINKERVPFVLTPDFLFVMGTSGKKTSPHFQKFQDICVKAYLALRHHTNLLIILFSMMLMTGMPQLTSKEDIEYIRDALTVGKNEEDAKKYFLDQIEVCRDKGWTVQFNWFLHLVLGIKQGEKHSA
Chain of Phosphatidylinositol 4,5-bisphosphate 3-kinase catalytic subunit alpha isoform (P42336 whole entry, canonical isoform): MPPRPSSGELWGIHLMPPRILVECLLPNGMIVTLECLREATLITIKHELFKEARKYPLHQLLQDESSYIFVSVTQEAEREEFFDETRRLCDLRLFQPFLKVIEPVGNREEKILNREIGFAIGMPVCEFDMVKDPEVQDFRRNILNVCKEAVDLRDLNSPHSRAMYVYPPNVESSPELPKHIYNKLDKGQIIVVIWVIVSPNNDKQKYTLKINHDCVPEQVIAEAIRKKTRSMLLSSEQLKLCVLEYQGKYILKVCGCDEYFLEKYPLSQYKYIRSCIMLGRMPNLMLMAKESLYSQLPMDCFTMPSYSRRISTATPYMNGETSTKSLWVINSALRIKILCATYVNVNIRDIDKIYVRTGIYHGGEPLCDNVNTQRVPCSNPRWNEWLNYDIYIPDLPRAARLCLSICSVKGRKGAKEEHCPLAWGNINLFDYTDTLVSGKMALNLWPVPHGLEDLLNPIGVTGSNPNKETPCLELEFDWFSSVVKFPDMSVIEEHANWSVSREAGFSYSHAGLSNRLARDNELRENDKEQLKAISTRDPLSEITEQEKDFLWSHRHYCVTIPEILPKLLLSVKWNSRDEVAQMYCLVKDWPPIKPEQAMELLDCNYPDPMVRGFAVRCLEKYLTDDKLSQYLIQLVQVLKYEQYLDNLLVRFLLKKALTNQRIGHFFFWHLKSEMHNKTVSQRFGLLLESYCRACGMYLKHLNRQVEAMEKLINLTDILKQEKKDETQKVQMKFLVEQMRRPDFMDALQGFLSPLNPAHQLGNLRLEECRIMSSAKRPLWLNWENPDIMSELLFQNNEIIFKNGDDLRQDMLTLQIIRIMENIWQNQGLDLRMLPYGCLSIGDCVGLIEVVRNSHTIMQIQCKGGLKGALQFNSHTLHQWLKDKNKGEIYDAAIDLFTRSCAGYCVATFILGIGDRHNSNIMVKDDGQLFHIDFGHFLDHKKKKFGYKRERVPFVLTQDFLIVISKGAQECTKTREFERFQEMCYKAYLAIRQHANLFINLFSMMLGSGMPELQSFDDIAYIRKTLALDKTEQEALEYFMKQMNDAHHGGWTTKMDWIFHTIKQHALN

## O=S(=O)(Nc1cc(-c2cnc3[nH]ncc3c2)cnc1Cl)c1ccccc1
[1]
  Retention_time: 7.9 min
[2]
  inhibition: Active
[3]
  inhibition: Active
[4]
  inhibition: Active

## COc1cc(COC(=O)n2ncc3cc(-c4cnc(Cl)c(NS(=O)(=O)c5ccccc5)c4)cnc32)c([N+](=O)[O-])cc1OC
[5]
  inhibition: Active
[6]
  inhibition: Active
[7]
  IC50: 43 nM
[8]
  IC50: 83 nM
[9]
  IC50: 84 nM
[10]
  IC50: 14 nM
B16 [11]
  IC50: 8.8 µM
[12]
  inhibition: Dose-Dependent Effect
[13]
  inhibition: Dose-Dependent Effect
[14]
  inhibition: Dose-Dependent Effect
[15]
  inhibition: Active
B16 [16]
  Activity: 95.6%
B16 [17]
  Activity: 3.16%
B16 [18]
  Activity: 1.25%
B16 [19]
  Activity: 0%
B16 [20]
  Activity: 88.1%
B16 [21]
  Activity: 7.13%
B16 [22]
  Activity: 3.42%
B16 [23]
  Activity: 1.3%
B16 [24]
  viability at 10 µM: 88.5%
B16 [25]
  Activity: 8.04%
B16 [26]
  Activity: 3.49%
B16 [27]
  Activity: 0%
B16 [28]
  viability at 15 µM: 69.6%
B16 [29]
  Activity: 14.4%
B16 [30]
  Activity: 14.7%
B16 [31]
  Activity: 1.27%
B16 [32]
  Activity: Active
B16 [33]
  Activity: Active
[1]
  Retention_time: 10.4 min
B16 [34]
  Activity: <10%
[35]
  Drug metabolism: > 98%

From ChEMBL document CHEMBL5365445, “Discovery of a photosensitizing PI3K inhibitor for tumor therapy: Design, synthesis and in vitro biological evaluation” (Bioorg Med Chem Lett, 2023)
